Assay results: patent publication US6602853B1, “Antigenic peptides reacting with anti-ovary antibodies” (Bio Merieux, priority 1996, dated 2003)
Bridges are numbered along the chain shown (N, C = ends). Where no end group is shown, it is not given here.

B1: β-chain of FSH: β-chain (β-subunit) of follicle stimulating hormone (protein)
chain: NSCELTNITIAIEKEECRFCISINTTWCAGYCYTRDLVYKDPARPKIQKTCTFKELVYETVRVPGCAHHADSLYTYPVATQCHCGKCDSDSTDCTVRGLGPSYCSFGEMKE

Assays:
[1] = tested on: anti-ovary antibodies (AOA); experiment: ELISA on 30 patient sera: correlation of serum reactivity toward crude ovarian antigen and toward each peptide (Example 2); assay type: binding, human; settings: for correlation between reactivity of sera toward ovarian antigen and toward the antigen tested, in words / r value, correlation between reactivity of sera toward ovarian antigen and toward the peptide, IgA AOA / r value, correlation between reactivity of sera toward ovarian antigen and toward the peptide, IgG AOA / r value, correlation between reactivity of sera toward ovarian antigen and toward the peptide, IgM AOA: 30 sera from patients, ELISA; for correlation between reactivity of sera toward ovarian antigen and toward the antigen tested, in words: compared among antigens; for antigenic or immunogenic activity toward anti-ovary antibodies, in words: comparison among oligopeptides, Example 2; for r value, correlation between reactivity of sera toward ovarian antigen and toward the peptide, IgA AOA: isotype IgA; for r value, correlation between reactivity of sera toward ovarian antigen and toward the peptide, IgG AOA: isotype IgG; for r value, correlation between reactivity of sera toward ovarian antigen and toward the peptide, IgM AOA: isotype IgM
Procedure: (§1) The concentration of molecules to be adsorbed was determined by checkerboard experiments for each antigen. It is about 1 μg per well.
(§2) The binding of the antigens to the solid phase is performed in one night at +4° C. in the amount of 100 μl per well of the solution of antigen in carbonate-bicarbonate buffer. The plate is emptied. The sites of the solid phase still unoccupied are saturated on incubation for one hour at 37° C. with 200 μl per well of 5% powdered milk reconstituted in PBS.
The plate is emptied and washed 3 times in PBS. The samples are distributed in the amount of 100 μl per well. The plate is incubated for 45 minutes at 37° C.
(§3) The anti-isotypes are diluted in the same solution that was used for the dilution of the samples:
(§4) The plate is again emptied and washed 3 times in PBS. Then the anti-isotypes are distributed in the amount of 100 μl per well. The plate is incubated for 45 minutes at 37° C.
(§5) The developer solution is prepared on the spot, as follows for one plate:
(§6) After 3 further washings of the plate, 100 μl of developer solution are distributed into each well. After appearance of a yellow colour of greater or lesser intensity the reaction is stopped with 50 μl of H2SO4. The plate is read on the spectrophotometer at 492 nm using the Multiskan II reader.
Any ratio greater than 1 is considered as positive.
These four peptides obtained in lyophilized form were, after reconstitution and dialysis, used as antigens in a series of ELISA tests on 30 sera from patients.
Moreover, these same sera were tested against the crude ovarian antigens.
The immunoenzymatic technique used is that described in Example 1.

[2] = tested on: anti-β-FSH monoclonal antibodies 22A3G7; 5H3E8; experiment: Recognition by anti-β-FSH monoclonal antibodies 22A3G7 and 5H3E8; assay type: binding; settings: antibodies immunoreactive with metrodine and ovarian extracts
anti-ovary antibodies = experiment: Recognition by serums containing anti-ovary antibodies; assay type: binding
[3] = tested on: anti-β-FSH monoclonal antibody 7G5A1; experiment: Reaction with anti-β-FSH monoclonal antibody 7G5A1; assay type: binding; settings: antibody only recognizing metrodine
[4] = tested on: anti-ovary antibodies (AOA); experiment: ELISA on 295 sera of IVF patients: correlation of reactivity toward total ovarian extract and toward peptide SEQ ID NO:1 (Example 3); assay type: binding, human; settings: for r value, IgA AOA vs IgA SEQ ID No.1: crude ovarian antigen IgA vs peptide IgA
Procedure: as §1, §2
The samples to be tested are diluted in PBS to which 0.5% BSA and 0.2% Tween 20 have been added: dilution to 1/50 for the search for anti-ovary and anti-corpus luteum antibodies. The plate is emptied and washed 3 times in PBS. The samples are distributed in the amount of 100 μl per well. The plate is incubated for 45 minutes at 37° C.
as §3, §4, §5, §6
The results are firstly expressed as optical density (O.D.) then calculated as ratios relative to a control sample at the limit of positivity. Any ratio greater than 1 is considered as positive.
[…] and ninety-five sera were tested in duplicate, using the immunoenzymatic method described above, with, firstly, the total ovarian extract, and, secondly, the peptide SEQ ID NO: 1. For each antigen, the three immunoglobulin isotypes IgG, IgA and IgM were studied.
The patients included in the study were all scheduled for IVF. Their average age was 32.7±4.2 years. The average duration of the sterility was 4.8±2.8 years.
In 209 cases the serum was collected on the eighth day of the stimulation, and in 84 cases the serum was collected 15 days after the puncture.
The results of the correlation obtained between the reactivity of the sera toward the crude ovarian antigen and that of the same sera toward the peptide SEQ ID NO:1 tested, and expressed by an r value, are shown in Table II below: […]

Molecule | correlation between reactivity of sera toward ovarian antigen and toward the antigen tested, in words [1] | antigenic or immunogenic activity toward anti-ovary antibodies, in words [1] | recognition by anti-β-FSH monoclonal antibodies 22A3G7; 5H3E8 [2] | recognition by serums containing anti-ovary antibodies (anti-ovary antibodies) | reaction with anti-β-FSH monoclonal antibody 7G5A1 [3] | r value, correlation between reactivity of sera toward ovarian antigen and toward the peptide, IgA AOA [1] | r value, correlation between reactivity of sera toward ovarian antigen and toward the peptide, IgG AOA [1] | r value, correlation between reactivity of sera toward ovarian antigen and toward the peptide, IgM AOA [1] | further results
TQCHCGKC (cysteine pairing not given here) [SEQ ID No.5] | same results as those obtained for the peptide SEQ ID No.1 | identical activity | recognized | recognized | does not react | – | – | – | –
SEQ ID No.3: sequence of 16 amino acids, bridged by a disulfide bond in position 5 and 10, amino acids 78-93 of the β-chain of FSH (VATQCHCGKCDSDSTD; disulfide 5-10) | – | weaker activity | – | – | – | 0.49 | 0.79 | 0.71 | –
SEQ ID No.4: sequence of 16 amino acids, bridged by a disulfide bond in position 7 and 10, amino acids 78-93 of the β-chain of FSH (VATQCHCGKCDSDSTD; disulfide 7-10) | – | weaker activity | – | – | – | 0.49 | 0.59 | 0.69 | –
SEQ ID No.1: linear sequence of 16 amino acids corresponding to the sequence of amino acids 78-93 of the β-chain of FSH (VATQCHCGKCDSDSTD; human FSH) | best correlation coefficients | identical activity | recognized | recognized | does not react | 0.46 | 0.74 | 0.81 | r value, IgA AOA vs IgA SEQ ID No.1 [4]: 0.11; r value, IgA AOA vs IgA SEQ ID No.1 ([4]; listed as SEQ ID NO:1): 0.10; r value, IgA AOA vs IgG SEQ ID No.1 ([4]; crude ovarian antigen IgA vs peptide IgG): 0.12; r value, IgA AOA vs IgM SEQ ID No.1 ([4]; crude ovarian antigen IgA vs peptide IgM): 0.01; r value, IgG AOA vs IgA SEQ ID No.1 ([4]; crude ovarian antigen IgG vs peptide IgA): 0.12; r value, IgG AOA vs IgG SEQ ID No.1 ([4]; crude ovarian antigen IgG vs peptide IgG): 0.18; r value, IgM AOA vs IgA SEQ ID No.1 ([4]; crude ovarian antigen IgM vs peptide IgA): 0.06; r value, IgM AOA vs IgG SEQ ID No.1 ([4]; crude ovarian antigen IgM vs peptide IgG): 0.10; r value, IgM AOA vs IgM SEQ ID No.1 ([4]; crude ovarian antigen IgM vs peptide IgM): 0.27
SEQ ID No.2: sequence of 16 amino acids, bridged by a disulfide bond in position 5 and 7, amino acids 78-93 of the β-chain of FSH (VATQCHCGKCDSDSTD; disulfide 5-7) | – | weaker activity | – | – | – | 0.28 | 0.44 | 0.75 | –
B1 | same results as those obtained for the peptide SEQ ID No.1 | – | – | – | – | – | – | – | –
